Assay results: patent US8865672B2, “Prevention of tissue ischemia and related methods” (The United States of America, as represented by the …, priority 2006, dated 2014)
“Also recorded” adds a separate entry of the source.

Key:
CD47 = experiment: Western analysis of CD47 in human aortic VSMC; assay type: cell-based; conditions: 48 hours
Experimental: Human aortic VSMC were plated onto 12-well culture plates (Nunc) at a density of 5×10^4 cells/well in SM-GM+2% FCS and cultured until approximately 90% confluent. A translation-blocking antisense morpholino oligonucleotide complementary to human and murine CD47 ([…]; SEQ ID NO: 21) and a five-base mismatch control (CGTgACAGcCAcGACCgACTGCgCA; SEQ ID NO: 22) were obtained from GeneTools (Philomath, Oreg.). Cultured cells were treated as per the manufacturer's recommendation with morpholinos (10 μM) and utilized within 48 hours of treatment.
Murine VSMC were plated in 12-well culture plates (5×10^4 cells/well) (Nunc) in growth medium and weaned over 48 h of additives and serum and then treated in basic medium with 0.1% BSA. Cells were washed twice with PBS and lysed in 1×SDS sample buffer containing 10 μg/mL leupeptin, 10 μg/mL aprotinin, 1 mM Na3VO4, and 40 mM NaF. Lysates prepared in the SDS sample buffer described above were electrophoresed in 4-12% BisTris NuPAGE gels and transferred to PVDF membranes prior to immunoblotting using a mouse monoclonal CD47 antibody, clone B6H12 (Lab Visions, Fremont, Calif.).

human platelets [1] = experiment: Thrombin-induced human platelet aggregation; assay type: cell-based; conditions: for NO delay of thrombin-induced platelet aggregation: DEA/NO 10 μM
Summary of the method: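 Washed human platelets in Tyrode's buffer pH 7.4 (2×10^5/μl) are stirred at 1200 rpm and 37 °C, and optical aggregation is followed for 5 min; under static conditions, A400 is tracked for 5 min instead. TSP1 agents or 1 μM peptide C6d are pre-incubated for 15 min before thrombin ± DEA/NO (10 μM).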

human platelets [2] = experiment: cGMP in human platelets; assay type: cell-based
Experimental: (§1) Fresh human platelets at 2×10^5 platelets/μl in Tyrode's buffer or PRP were pre-incubated with the indicated agents for 15 minutes and then challenged with DEA/NO for the indicated time interval at room temperature and total cGMP determined via immunoassay (Amersham, GE Healthcare, Buckinghamshire, UK). Murine WT and TSP1-null platelets were treated with DEA/NO and cGMP flux measured.

[3] = tested on: murine WT and TSP1-null platelets; experiment: cGMP in murine platelets; assay type: cell-based, mouse; conditions: WT and null platelets, TSP1 2.2 nM
Experimental: After induction of general anesthesia with isoflurane 2%, age and sex matched C57BL/6 WT and TSP1-null mice underwent cardiac puncture. Blood was aspirated into 1 cc syringes with a 25 gauge needle containing 100 μl heparin (Heparin Lock Flush, Abbott, Chicago, Ill.), mixed with 100 μl 3% ACD and centrifuged in 1.2 ml S-Monovette separation tubes (Sarstedt, Germany). PRP was aspirated off, centrifuged, and the resulting platelet pellet was resuspended in 200 μl of Tyrode's buffer.
as §1

Rap1 = Rap1 pulldown assay in platelets; assay type: cell-based, human; conditions: thrombin
Experimental: Platelets were diluted to 5×10^8 platelets/mL in Tyrode's buffer and treated with various reagents for the indicated times. Immediately following treatment, platelets were pelleted at 13,000 g for 30 seconds at 4° C. and resuspended in ice-cold lysis buffer containing 20 mM HEPES (pH 7.5), 100 mM NaCl, 10 mM EGTA, 20 mM MgCl2, 8 mM α-glycerophosphate, 1% Triton X-100, 1 mM phenylmethylsulfonylfluoride, 40 mM NaF, 1 mM Na3VO4, 10 μg/mL aprotinin, and 10 μg/mL leupeptin. Lysates were centrifuged at 13,000 g for 5 minutes at 4° C. and the supernatants were incubated for 15 minutes on a tumbler at 4° C. with glutathione Sepharose 4B beads (Amersham) prebound with a GST-Ral GDS RBD fusion protein (kind gift of J. Silvio Gutkind, NIH, Bethesda, Md.). Bead complexes were washed by centrifugation at 6,000 g for 30 seconds at 4° C. followed by resuspension in 0.5 mL lysis buffer; 2 washes were performed for each sample. After the second wash, beads were resuspended in an equal volume of 2×SDS sample buffer and stored at −20° C. For Western analysis, bead-bound proteins in sample buffer were boiled for 10 minutes and subjected to electrophoresis on NuPAGE 10% Bis-Tris gels (Invitrogen, Carlsbad, Calif.), transferred to Immobilon-P PVDF membranes (Millipore, Billerica, Mass.), and blotted with rabbit polyclonal anti-Rapt (sc-65; Santa Cruz Biotechnology, Santa Cruz, Calif.).

CGTCACAGGCAGGACCCACTGCCCA (all phosphorodiamidate morpholino (PMO)) [CD47 morpholino]
CD47 protein (Western) (CD47): dose dependent decrease in CD47 protein

TSP1: thrombospondin-1 prepared from human platelets
platelet aggregation at high shear in the presence of NO (human platelets [1]; GGTI-298 preincubation): maintained its ability to accelerate platelet aggregation | lowest concentration tested, sufficient to accelerate platelet aggregation in the presence of NO (human platelets [1]; high shear): 0.022 nM | NO delay of thrombin-induced platelet aggregation (human platelets [1]; high shear, thrombin 0.2 U/ml): reversed in a dose-dependent manner | NO delay of thrombin-induced platelet aggregation (human platelets [1]; static / low shear conditions): completely abrogated | NO-stimulated cGMP flux in platelets (human platelets [2]; PRP, TSP1 2.2 nM): continued to block | NO stimulated cGMP in platelets (human platelets [2]; washed human platelets in Tyrode's buffer): decreased | NO-driven flux in platelet cGMP [3]: decreased the NO-driven flux in platelet cGMP | Rap1 activation (GTP loading) (Rap1): reversed the inhibition of Rap1 activation; also recorded: did not increase Rap1 activation
